This is an account of results in paper PMC6135100 (Toxicology, 2017).

Structures are written as SMILES. Like-named read-outs stand apart in the source and are kept apart here.

The subject of data set [1] is AR. As to conditions: AR reference compounds; ref Kleinstreuer 2016; cited from earlier work.
For data set [2], the target named is T1, rat AR ligand-binding domain (LBD) fused to the DNA-binding domain of GAL4 (Rattus norvegicus, UniProt P15207).
T1 sequence (P15207 651-882 limits assumed): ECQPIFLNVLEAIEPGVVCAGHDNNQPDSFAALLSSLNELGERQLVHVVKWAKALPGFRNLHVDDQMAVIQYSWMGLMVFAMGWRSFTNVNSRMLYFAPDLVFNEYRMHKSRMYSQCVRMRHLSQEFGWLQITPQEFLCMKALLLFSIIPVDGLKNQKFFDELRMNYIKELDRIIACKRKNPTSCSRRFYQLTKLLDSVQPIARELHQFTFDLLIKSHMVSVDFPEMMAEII
Description: qHTS AR β-lactamase. It counts as cell-based. To be noted: for AR-bla Primary Assay EC50: Inactive = efficacy below 30% of R1881's activity. On the technique in general: In qHTS, concentration-response curves come from the screen itself.

The target of data set [3] is AR (full receptor) (Homo sapiens, UniProt P10275). As to the kind of experiment: qHTS AR-luciferase. It counts as cell-based. As to conditions: for AR-luc Primary Assay EC50 / AR-luc Primary Assay Efficacy: primary qHTS; for AR-luc Primary Assay EC50: Inactive = efficacy below 30% of R1881's activity; for AR-luc Efficacy / EC50: Table 3, mean ± SD, n=3; for AR-luc Efficacy / AR-luc Primary Assay Efficacy: relative to maximal efficacy of R1881; for EC50: read-out: AR-luc EC50.
AR (full receptor), sequence (P10275 whole entry): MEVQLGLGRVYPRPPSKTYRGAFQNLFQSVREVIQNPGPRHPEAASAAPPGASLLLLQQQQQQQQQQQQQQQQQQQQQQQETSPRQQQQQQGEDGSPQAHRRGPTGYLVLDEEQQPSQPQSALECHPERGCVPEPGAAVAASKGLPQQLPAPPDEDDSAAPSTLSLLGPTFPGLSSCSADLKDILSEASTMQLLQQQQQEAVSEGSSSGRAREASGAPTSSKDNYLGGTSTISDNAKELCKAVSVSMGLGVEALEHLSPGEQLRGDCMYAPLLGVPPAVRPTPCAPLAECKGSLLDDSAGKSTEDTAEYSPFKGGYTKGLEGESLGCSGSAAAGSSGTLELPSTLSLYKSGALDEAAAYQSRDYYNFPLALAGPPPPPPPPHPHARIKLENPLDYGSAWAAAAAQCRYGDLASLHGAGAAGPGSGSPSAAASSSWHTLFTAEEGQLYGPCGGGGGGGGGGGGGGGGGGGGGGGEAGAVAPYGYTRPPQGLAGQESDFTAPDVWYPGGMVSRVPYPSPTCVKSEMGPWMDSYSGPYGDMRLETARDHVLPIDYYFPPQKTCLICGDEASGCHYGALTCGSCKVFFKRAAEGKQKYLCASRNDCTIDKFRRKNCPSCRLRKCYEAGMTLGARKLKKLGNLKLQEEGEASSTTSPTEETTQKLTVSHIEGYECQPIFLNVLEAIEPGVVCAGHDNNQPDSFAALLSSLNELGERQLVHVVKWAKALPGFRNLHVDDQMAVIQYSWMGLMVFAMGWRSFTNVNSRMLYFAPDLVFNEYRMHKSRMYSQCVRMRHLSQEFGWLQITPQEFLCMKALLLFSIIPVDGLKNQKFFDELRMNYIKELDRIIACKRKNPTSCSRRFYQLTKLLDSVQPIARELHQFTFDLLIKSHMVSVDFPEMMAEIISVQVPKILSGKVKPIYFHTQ

Data set [4] concerns the target T2, AR-LBD (Rattus norvegicus, UniProt P15207).
T2 sequence (P15207 651-882 limits assumed): T1 sequence (P15207 651-882 limits assumed)
Description: Fluorescence polarization AR competition binding assay.

Data set [5] deals with AR. To be noted: ref Tamaya et al. 1986; cited from earlier work.
The test system of data set [6] is rabbit. As to conditions: rabbit development study; ref Morinaga et al. 1996b; cited from earlier work.
Data set [7] has as its target estrogen receptor (Homo sapiens, UniProt P03372). As to the kind of experiment: Analogous estrogen receptor screens. It counts as cell-based. As to conditions: data not shown.

Usually EC50 stands for the concentration that produces a half-maximal response. For orientation: IC50 means the midpoint of a concentration-inhibition curve. A high value points to lower potency.

estrogen receptor, sequence (P03372 whole entry): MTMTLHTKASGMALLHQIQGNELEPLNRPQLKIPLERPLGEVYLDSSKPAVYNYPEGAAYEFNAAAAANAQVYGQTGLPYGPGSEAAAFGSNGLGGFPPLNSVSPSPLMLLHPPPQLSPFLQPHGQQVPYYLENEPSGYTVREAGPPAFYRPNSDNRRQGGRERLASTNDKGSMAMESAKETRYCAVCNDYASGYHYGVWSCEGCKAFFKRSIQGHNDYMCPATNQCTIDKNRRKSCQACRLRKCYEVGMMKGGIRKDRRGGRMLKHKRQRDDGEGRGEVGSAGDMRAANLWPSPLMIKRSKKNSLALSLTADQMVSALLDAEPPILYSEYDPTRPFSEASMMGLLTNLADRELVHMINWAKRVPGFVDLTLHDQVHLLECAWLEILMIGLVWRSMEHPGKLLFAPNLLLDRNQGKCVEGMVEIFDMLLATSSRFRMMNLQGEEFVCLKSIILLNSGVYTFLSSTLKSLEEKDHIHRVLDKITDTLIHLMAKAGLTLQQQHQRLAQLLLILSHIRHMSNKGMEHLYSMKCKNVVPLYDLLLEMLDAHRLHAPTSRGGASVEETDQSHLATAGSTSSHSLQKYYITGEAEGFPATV

On to `C[C@]12CCC(=O)C=C1CC[C@@H]1[C@@H]2CC[C@]2(C)C(=O)CC[C@@H]12` [4-Androstenedione], for which the “Known AR Activity” value in data set [1] is “Agonist”.
Take `C[C@]12CCC(=O)C[C@@H]1CC[C@@H]1[C@@H]2CC[C@]2(C)[C@@H](O)CC[C@@H]12` [5α-Dihydrotestosterone]: in data set [1], the “Known AR Activity” value is recorded as “Agonist”.
In the case of `CCNc1nc(Cl)nc(NC(C)C)n1` [Atrazine], the “Known AR Activity” value in data set [1] is “Inactive”.
On to `COC(=O)Nc1nc2ccccc2[nH]1` [Carbendazim], for which the “AR-bla Primary Assay EC50” value in data set [2] (primary qHTS) is “Inactive^b”. Also, the “AR-luc Primary Assay EC50” value in data set [3] was “Inactive^b”. In data set [1], the “Known AR Activity” value is listed as “Inactive”.
With `CC(=O)O[C@]1(C(C)=O)CC[C@H]2[C@@H]3C=C(Cl)C4=CC(=O)[C@@H]5C[C@@H]5[C@]4(C)[C@H]3CC[C@@]21C` [Cyproterone acetate], the “Known AR Activity” value in data set [1] was “Weak Agonist”.
As to `CC1(C)[C@H](C(=O)O[C@H](C#N)c2cccc(Oc3ccccc3)c2)[C@@H]1C=C(Br)Br` [Deltamethrin], the “AR-bla Primary Assay EC50” value in data set [2] (primary qHTS) is “Inactive^b”. Further, the “AR-luc Primary Assay EC50” value in data set [3] is “Inactive^b”. Besides, the “Known AR Activity” value in data set [1] is “Inactive”.
In turn, `C[C@]12CC[C@H]3C(=CCc4cc(O)ccc43)[C@@H]1CCC2=O` [Equilin] had an EC50 in data set [2] of 19.5 µM. Besides, the “AR-bla Efficacy” value in data set [2] (Table 3, mean ± SD, n=3, relative to maximal efficacy of R1881) stood at 31.53 ± 3.88%. In addition, in data set [3], the “AR-luc Efficacy” value amounted to 89.27 ± 18.86% and the concentration giving a half-maximal response (EC50) was determined as 6.31 ± 2.03 µM. For the same compound, in data set [4], the “FP Binding Efficacy” value is given as −89.77 ± 13.22% and the IC50 was determined as 21 ± 3.41 µM.
Turning to `OC(c1ccc(Cl)cc1)(c1cncnc1)c1ccccc1Cl` (stereo not shown) [Fenarimol], in data set [1], the “Known AR Activity” value is listed as “Inactive”.
With `C[C@]1(O)CC[C@H]2[C@@H]3CCC4=CC(=O)CC[C@]4(C)[C@@]3(F)[C@@H](O)C[C@@]21C` [Fluoxymestrone], in data set [1], the “Known AR Activity” value was “Agonist”.
With `CC(C)C(=O)Nc1ccc([N+](=O)[O-])c(C(F)(F)F)c1` [Flutamide], in data set [1], the “Known AR Activity” value is “Inactive”.
Regarding `CC1(C)[C@@H](O[C@H]2O[C@H](C(=O)O)[C@@H](O)[C@H](O)[C@H]2O[C@@H]2O[C@H](C(=O)O)[C@@H](O)[C@H](O)[C@H]2O)CC[C@]2(C)[C@H]3C(=O)C=C4[C@@H]5C[C@@](C)(C(=O)O)CC[C@]5(C)CC[C@@]4(C)[C@]3(C)CC[C@@H]12` [Glycyrrhizin], in data set [5], the “binding to AR, previously identified” value was “weak binder of AR”.
As for `CC(C)NC(=O)N1CC(=O)N(c2cc(Cl)cc(Cl)c2)C1=O` [Iprodione], the “Known AR Activity” value in data set [1] is on record as “Inactive”.
As to `C#C[C@]1(O)CC[C@H]2[C@@H]3CCC4=CC(=O)CC[C@@H]4[C@H]3CC[C@@]21CC` [Levonorgestrel], in data set [1], the “Known AR Activity” value was “Agonist”.
Consider `CC(=O)O[C@]1(C(C)=O)CC[C@H]2[C@@H]3C[C@H](C)C4=CC(=O)CC[C@]4(C)[C@H]3CC[C@@]21C` [Medroxyprogesterone acetate], for which, in data set [1], the “Known AR Activity” value is “Agonist”.
Turning to `C=C1C[C@H]2[C@@H]3C=C(C)C4=CC(=O)CC[C@]4(C)[C@H]3CC[C@]2(C)[C@@]1(OC(C)=O)C(C)=O` [Melengestrol acetate], in data set [3], the “AR-luc Efficacy” value is on record as 288.12 ± 44.83% and the EC50 is 0.017 ± 0.012 µM. The same compound returned an IC50 in data set [4] of 1.17 ± 0.2 µM. Besides, the “FP Binding Efficacy” value in data set [4] (mean ± SD, n=3, printed as negative values) was −124.24 ± 3.58%.
In the case of `C[C@]12CCC(=O)C=C1CC[C@@H]1[C@@H]2CC[C@@]2(C)[C@H]1CC[C@]2(C)O` [Methyltestosterone], the “Known AR Activity” value in data set [1] was “Agonist”.
On to `C[C@]1(O)CC[C@H]2[C@@H]3CCC4=CC(=O)CCC4=C3C=C[C@@]21C` [Methyltrienolone (R1881), Methyltrienolone], for which the “AR-bla Primary Assay Efficacy” value in data set [2] is 0.00131 [131] %. In addition, the “Known AR Activity” value in data set [1] was “Agonist”.
As for `C[C@]12CC[C@H]3[C@@H](CCC4=CC(=O)CC[C@@H]43)[C@@H]1CC[C@@H]2O` [Nandrolone], in data set [1], the “Known AR Activity” value was “Agonist”.
For the compound `CC1(C)NC(=O)N(c2ccc([N+](=O)[O-])c(C(F)(F)F)c2)C1=O` [Nilutamide], the “Known AR Activity” value in data set [1] is on record as “Inactive”.
Consider `CN1C(=O)CN=C(c2ccccc2)c2cc([N+](=O)[O-])ccc21` [Nimetazepam, nimetazepam], for which the “AR-luc Primary Assay Efficacy” value in data set [3] came out at 470%.
For the compound `C#C[C@]1(OC(C)=O)CC[C@H]2[C@@H]3CCC4=CC(=O)CC[C@@H]4[C@H]3CC[C@@]21C` [Norethindrone acetate], in data set [1], the “Known AR Activity” value is “Agonist”.
In the case of `C#C[C@]1(O)CC[C@H]2[C@@H]3CCC4=CC(=O)CC[C@@H]4[C@H]3CC[C@@]21C` [Norethindrone], in data set [1], the “Known AR Activity” value is listed as “Agonist”.
In the case of `C#C[C@]1(O)CC[C@H]2[C@@H]3CCC4=C(CCC(=O)C4)[C@H]3CC[C@@]21C` [Norethynodrel], the “Known AR Activity” value in data set [1] is “Agonist”.
`CCCN(CCOc1c(Cl)cc(Cl)cc1Cl)C(=O)n1ccnc1` [Prochloraz]: the “Known AR Activity” value in data set [1] is “Inactive”.
Consider `Cc1oc(=O)oc1CN1CCN(c2cc3c(cc2F)c(=O)c(C(=O)O)c2n3C(C)S2)CC1` (stereo not shown) [Prulifloxacin], for which, in data set [6], the NOAEL for pregnancy is given as 30 mg/kg and the “general toxicity NOAEL” value was 10 mg/kg. Besides, the “activity in estrogen receptor screens” value in data set [7] is “active”.
`Oc1ccc(/C=C/c2cc(O)cc(O)c2)cc1` [Resveratrol]: in data set [2] (primary qHTS), the “AR-bla Primary Assay EC50” value was “Inactive^b”. Moreover, in data set [3], the “AR-luc Primary Assay EC50” value is reported as “Inactive^b”. Besides, the “Known AR Activity” value in data set [1] is recorded as “Inactive”.
As for `CC/C(=C(\c1ccccc1)c1ccc(OCCN(C)C)cc1)c1ccccc1` [Tamoxifen], in data set [1], the “Known AR Activity” value is given as “Inactive”.
For the compound `C[C@]12CC[C@H]3[C@@H](CCC4=CC(=O)CC[C@@]43C)[C@@H]1CC[C@@H]2O` [Testosterone], in data set [1], the “Known AR Activity” value was “Agonist”.
`C[C@]12C=CC3=C4CCC(=O)C=C4CCC3C1CC[C@@H]2O` (stereo partly shown) [Trenbolone]: in data set [2] (primary qHTS, relative to maximal efficacy of R1881), the “AR-bla Primary Assay Efficacy” value came out at 105%. Also, the “AR-luc Primary Assay Efficacy” value in data set [3] turned out to be 122%. The “Known AR Activity” value in data set [1] is on record as “Agonist”.
As for `Clc1ccc(C(c2ccc(Cl)cc2)C(Cl)(Cl)Cl)cc1` [p,p’-DDT], the “Known AR Activity” value in data set [1] is “Inactive”.
